The values below come from patent publication US20070179175A1, “Tetrahydronaphthyridine Derivative” (priority 2005, published 2007).

As a reminder, the EC50 is the concentration that produces a half-maximal response. A low value points to greater potency. For orientation: IC50 means the concentration that inhibits the measured activity by half. One may read the Ki as the equilibrium dissociation constant of an inhibitor or competing ligand from its target.

The target of test [1] is T1, human histamine H3 receptor (Homo sapiens, UniProt Q9Y5N1).
T1 construct: expressed in transfected cells; host or cells: HEK-293 cells expressing a CRE beta-lactamase reporter gene
The test is described as follows: H3 cell based functional assay (cAMP, β-lactamase reporter gene). On the procedure: The compound was evaluated using a cell based functional assay measuring cAMP through β-lactamase reporter gene activity. A stable cell line was generated from HEK-293 cells expressing a CRE β-lactamase reporter gene and transfected with human histamine H3 receptor cDNA. Cells were seeded at a density of 500,000 cells/ml, and grown overnight in MEM (Invitrogen) supplemented with 1% dialysed FBS (Sigma), 2 mM glutamine (Sigma), 1 mM sodium pyruvate (Sigma), 0.1 mM non essential amino acids (Invitrogen) and 25 mM HEPES (Sigma) in poly D lysine coated 384 well plates (BD Biosciences). […] For IC50 determination, the test compound was prepared in PBS (Sigma) and DMSO (Sigma) at a dose response of 5×10^−10 to 5×10^−5 M with a final DMSO concentration in the assay of 0.5%. Cells were incubated for 15 minutes plus/minus compound and their ability to permit 10 μM forskolin-stimulated cAMP synthesis in the presence of 1 nM imetit was measured as described above.
On the technique in general: A reporter such as luciferase makes a cellular process visible.

Test [2] has as its target T2, hERG channel (Homo sapiens, UniProt Q12809).
T2 construct: expressed in transfected cells
Nature of the test: hERG patch clamp assay. Particulars: HEK293 cells stably expressing hERG; whole-cell patch clamp, 26.5-28.5° C. It is filed as cell-based. On the procedure:
To determine the potential of compounds to inhibit the hERG channel, the cloned counterpart of the […] delayed rectifier potassium current (IKr), HEK293 cells stably expressing the hERG channel were used in whole-cell patch clamp electrophysiology studies at ambient temperature (26.5-28.5° C.). The methodology for stable transfection of this channel in HEK293 cells can be found elsewhere (Zhou et al 1998, Biophysical Journal, 74, pp 230-241). The solutions used for experimentation were standard extracellular solution of the following composition (mM); NaCl, 137; KCl, 4; CaCl2, 1.8; MgCl2, 1; Glucose, 10; HEPES, 10; pH 7.4±0.05 with NaOH/HCl; and standard intracellular solution of the following composition (mM); KCl 130; MgCl2, 1; HEPES, 10; EGTA, 5; MgATP, 5; pH 7.2±0.05 with KOH. The voltage protocol applied was designed to activate the hERG channel and allow the measurement of drug block of the channel and is as follows. First the membrane potential was stepped from a holding potential of −80 mV to +30 mV for 1s. This was followed by a descending voltage ramp at a rate of 0.5 mV/ms back to holding potential of −80 mV and the peak outward current observed during the repolarizing ramp was measured. This protocol was evoked repeatedly every 4 seconds (0.25 Hz). […]
(In general: The hERG channel carries a current that helps repolarise heart muscle cells.)

T1 sequence (Q9Y5N1 whole entry): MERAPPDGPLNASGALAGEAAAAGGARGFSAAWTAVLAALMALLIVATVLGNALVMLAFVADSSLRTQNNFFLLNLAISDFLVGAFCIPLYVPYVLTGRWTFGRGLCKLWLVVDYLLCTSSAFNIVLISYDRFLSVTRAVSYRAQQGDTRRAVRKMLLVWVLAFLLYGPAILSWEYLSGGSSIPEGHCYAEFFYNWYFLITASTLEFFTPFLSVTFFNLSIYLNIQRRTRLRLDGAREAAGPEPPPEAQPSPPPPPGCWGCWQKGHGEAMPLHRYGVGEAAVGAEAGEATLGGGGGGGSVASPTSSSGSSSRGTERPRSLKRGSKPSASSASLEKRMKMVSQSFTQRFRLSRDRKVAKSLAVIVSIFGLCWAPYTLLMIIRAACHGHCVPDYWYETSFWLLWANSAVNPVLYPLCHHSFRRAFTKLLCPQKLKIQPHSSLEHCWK
T2 sequence (Q12809 whole entry): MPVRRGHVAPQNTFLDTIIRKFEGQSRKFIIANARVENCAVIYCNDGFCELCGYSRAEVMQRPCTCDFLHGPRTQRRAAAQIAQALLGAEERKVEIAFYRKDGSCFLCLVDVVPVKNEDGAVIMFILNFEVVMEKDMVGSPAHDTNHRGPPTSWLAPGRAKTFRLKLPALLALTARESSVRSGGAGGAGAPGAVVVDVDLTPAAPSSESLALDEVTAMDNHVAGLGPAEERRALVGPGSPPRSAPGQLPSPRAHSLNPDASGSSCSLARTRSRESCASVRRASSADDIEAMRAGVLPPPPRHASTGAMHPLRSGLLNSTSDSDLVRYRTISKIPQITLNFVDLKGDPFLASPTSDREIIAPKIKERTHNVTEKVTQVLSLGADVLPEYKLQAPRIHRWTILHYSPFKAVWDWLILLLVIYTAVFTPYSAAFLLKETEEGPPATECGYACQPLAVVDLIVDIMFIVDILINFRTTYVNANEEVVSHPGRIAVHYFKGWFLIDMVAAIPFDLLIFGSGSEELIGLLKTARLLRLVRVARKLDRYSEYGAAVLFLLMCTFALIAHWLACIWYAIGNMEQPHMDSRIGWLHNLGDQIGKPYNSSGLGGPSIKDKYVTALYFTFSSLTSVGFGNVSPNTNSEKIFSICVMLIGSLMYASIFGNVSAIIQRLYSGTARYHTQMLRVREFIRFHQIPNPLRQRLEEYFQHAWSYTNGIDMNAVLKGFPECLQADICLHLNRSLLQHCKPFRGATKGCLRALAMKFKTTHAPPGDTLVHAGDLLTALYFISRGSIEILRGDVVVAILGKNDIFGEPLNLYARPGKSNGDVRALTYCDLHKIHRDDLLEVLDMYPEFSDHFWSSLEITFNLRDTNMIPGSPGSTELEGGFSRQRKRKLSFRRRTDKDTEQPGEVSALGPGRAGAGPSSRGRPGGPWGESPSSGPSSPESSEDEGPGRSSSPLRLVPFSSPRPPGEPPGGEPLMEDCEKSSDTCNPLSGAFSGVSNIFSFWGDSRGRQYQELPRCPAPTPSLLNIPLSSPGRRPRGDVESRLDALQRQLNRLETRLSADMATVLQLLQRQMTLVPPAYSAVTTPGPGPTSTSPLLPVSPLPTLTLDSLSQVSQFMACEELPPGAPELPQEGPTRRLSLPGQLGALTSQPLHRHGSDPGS

In the case of `N=C(N)SCCc1cnc[nH]1` [imetit, reference compound], the midpoint of the response in test [1], the EC50, lay at 0.35 nM. As for `CC(C)N1CCC(Oc2ccc3c(n2)CCN(c2ccc(C(N)=O)cn2)C3)CC1` [Example 1, 6-[2-(1-Isopropyl-piperidin-4-yloxy)-7,8-dihydro-5H-[1,6]naphthyridin-6-yl]-nicotinamide], in test [2], the IC50 turned out to be 22200 nM. The Ki in test [1] (HEK-293 CRE β-lactamase cells, antagonism of 1 nM imetit, 10 μM forskolin, Ki calculated from IC50 by the Cheng-Prussoff equation) was 2.6 nM.
